“Also recorded” adds a separate entry of the source.
Columns and labels:
HCT-116 cells [1] = experiment: Cell cycle analysis (PI, flow cytometry); type: cell-based, human; conditions: 10 µM, 24 h, PI staining
Procedure: To analyze cell cycle changes, cells permeated at 1 × 10^6 × cells/mL were trypsinized and diluted and then fixed in 70% ethanol at 4 °C. Cell cycle arrest in HCT-116 cells following compound exposure was accomplished using propidium iodide (Sigma-Aldrich, St. Louis, MI, USA). The markers were then assessed using a FACS-Caliburflow cytometer (Beckman Coulter, Taipei, Taiwan) and analyzed using WinMDI software. […]
(§1) Figure 3 Apoptosis induction and cell cycle effects of compounds in HCT-116 cells. (A) The apoptotic population of HCT-116 cells was analyzed using flow cytometry after treatment with 10 µM of the test compound for 24 h followed by Annexin V/propidium iodide (PI) staining. (B) After treatment with compound concentrations of 10 µM for 24 h, cells were fixed, stained with propidium iodide (PI), and analyzed for cell cycle distribution. Results are expressed as the means ± SD from three independent experiments (* p < 0.05 and ** p < 0.01 *** p < 0.001, control versus compound).

HCT-116 cells [2] = experiment: Annexin-V/PI apoptosis assay; type: cell-based, human; conditions: 10 µM, 24 h
Procedure: For the same set of compounds, the apoptosis-inducing effects in HCT-116 cells were assessed using Annexin-V/PI double staining at 10 µM (Figure 3).
The number of apoptotic/necrotic cells was analyzed using flow cytometry following the manufacturer’s protocol. Markers were assessed using a FACS-Caliburflow cytometer (Beckman Coulter, Taipei, Taiwan) and analyzed using WinMDI 2.8 software.
as §1

human DNA Topo II = target: T1, human DNA Topo II (Homo sapiens, UniProt P11388); experiment: Topo II-mediated relaxation of supercoiled pHOT1 plasmid DNA; type: biochemical; conditions: for DNA band pattern in Topo II relaxation assay: at 1 and 5 µM doses, similar to doxorubicin
T1 construct: purchased Topogen, Columbus, OH, USA
Procedure: Consequently, the effects of the synthesized compounds on Topo II activity were evaluated with a cell-free assay using a purified human DNA Topo II-protein-mediated relaxation of the negatively supercoiled pHOT1 plasmid DNA [40]. […] Two Topo II inhibitors (doxorubicin and etoposide) were used as positive controls.
The reaction was terminated by adding 2 μL of 10% SDS, followed by 2.5 μL of proteinase K (50 μg/mL) to digest the bound protein. The system was incubated at 37 °C for 15 min. The DNA product was finally analyzed using electrophoresis on a vertical 1.5% agarose gel at 2 volts/cm in 1 × TAE buffer and photographed using the Eagle Eye II system (Stratagene, La Jolla, CA, USA).
Figure 2 Effects of compounds on topoisomerase II activity. Effects on Topo II-mediated relaxation of supercoiled pHOT1 plasmid DNA in a cell-free system. Positive control: etoposide (10 µM); doxorubicin (5 µM) used as Topo II poison (induction of linear DNA); DNA relaxation: plasmid DNA + topo IIα + solvent control. Nick, nicked DNA; Sc, supercoiled DNA; Lin, linear DNA.

DU-145 = experiment: NCI-60 one-dose screen; type: cell-based; conditions: Homo sapiens; DU-145, Prostate Cancer panel; single dose 10^−5 M; read-out: Growth inhibition %
HCC-2998 = experiment: NCI-60 one-dose screen; type: cell-based; conditions: Homo sapiens; HCC-2998, Colon Cancer panel; single dose 10^−5 M; read-out: Growth inhibition %
SR = experiment: NCI-60 one-dose screen; type: cell-based; conditions: Homo sapiens, Leukemia panel, single dose 10^−5 M, read-out: Growth inhibition %

T1 sequence (P11388 whole entry): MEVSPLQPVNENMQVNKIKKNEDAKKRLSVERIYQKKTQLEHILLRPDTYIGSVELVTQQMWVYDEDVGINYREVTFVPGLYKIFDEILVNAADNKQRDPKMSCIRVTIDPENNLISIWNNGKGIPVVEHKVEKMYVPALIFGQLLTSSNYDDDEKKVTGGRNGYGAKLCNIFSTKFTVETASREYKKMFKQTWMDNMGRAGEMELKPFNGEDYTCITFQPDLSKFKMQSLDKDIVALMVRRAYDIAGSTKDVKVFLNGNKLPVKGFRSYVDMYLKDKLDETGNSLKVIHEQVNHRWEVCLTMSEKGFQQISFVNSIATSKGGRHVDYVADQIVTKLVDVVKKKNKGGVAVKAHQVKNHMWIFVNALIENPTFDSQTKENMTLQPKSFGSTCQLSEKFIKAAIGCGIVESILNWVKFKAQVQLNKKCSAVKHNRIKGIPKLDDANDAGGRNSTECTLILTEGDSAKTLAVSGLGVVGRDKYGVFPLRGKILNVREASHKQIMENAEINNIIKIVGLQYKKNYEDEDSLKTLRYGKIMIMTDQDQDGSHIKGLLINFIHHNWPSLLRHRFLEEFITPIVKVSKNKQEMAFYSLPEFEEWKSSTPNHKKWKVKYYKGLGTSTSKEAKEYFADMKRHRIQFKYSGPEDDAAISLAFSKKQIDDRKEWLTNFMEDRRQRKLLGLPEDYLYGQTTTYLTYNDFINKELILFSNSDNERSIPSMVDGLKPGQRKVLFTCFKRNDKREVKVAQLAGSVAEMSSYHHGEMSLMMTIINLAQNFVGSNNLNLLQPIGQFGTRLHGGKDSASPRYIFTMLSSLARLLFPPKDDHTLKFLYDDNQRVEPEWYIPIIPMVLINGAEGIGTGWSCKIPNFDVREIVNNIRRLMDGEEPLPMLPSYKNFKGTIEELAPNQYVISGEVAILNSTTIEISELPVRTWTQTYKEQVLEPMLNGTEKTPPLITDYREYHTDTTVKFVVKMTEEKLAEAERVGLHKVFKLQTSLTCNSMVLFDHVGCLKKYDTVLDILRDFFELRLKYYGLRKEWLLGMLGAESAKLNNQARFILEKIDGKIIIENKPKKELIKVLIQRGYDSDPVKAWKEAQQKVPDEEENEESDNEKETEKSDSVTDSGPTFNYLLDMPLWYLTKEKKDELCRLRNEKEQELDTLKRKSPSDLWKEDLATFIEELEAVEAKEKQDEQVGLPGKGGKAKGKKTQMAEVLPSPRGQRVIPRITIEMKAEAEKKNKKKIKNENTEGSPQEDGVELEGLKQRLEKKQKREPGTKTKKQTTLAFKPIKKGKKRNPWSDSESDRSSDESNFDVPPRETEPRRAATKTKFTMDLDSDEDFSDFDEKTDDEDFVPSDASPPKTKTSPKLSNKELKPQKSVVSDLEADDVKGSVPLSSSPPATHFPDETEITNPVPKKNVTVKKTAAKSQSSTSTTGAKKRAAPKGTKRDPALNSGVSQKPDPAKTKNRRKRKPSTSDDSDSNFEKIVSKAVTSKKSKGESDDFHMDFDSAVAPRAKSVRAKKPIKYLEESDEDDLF

| Compound | effect on cell cycle (HCT-116 cells [1]) | induction of apoptosis (HCT-116 cells [2]) | DNA band pattern in Topo II relaxation assay (human DNA Topo II) | inhibition at 10 µM (DU-145) | inhibition at 10 µM (HCC-2998) | inhibition at 10 µM (SR) | concentration at which Topo II inhibition (increase of supercoiled DNA) is shown (human DNA Topo II; cell-free relaxation assay, gel) |
| --- | --- | --- | --- | --- | --- | --- | --- |
| c1csc(-c2ccc(CNc3c4ccccc4nc4ccccc34)cc2)c1 [Compound 24, Acridin-9-yl-(4-thiophen-2-yl-benzyl)-amine] | arrested the cell cycle in the S phase | 20%–50% | larger base pair band than nicked DNA | 38.3% | 187% | 144% |  |
| COc1ccc2nc3ccccc3c(NCc3ccccc3)c2c1 [Compound 25, Benzyl-(2-methoxyacridin-9-yl)-amine] | cell cycle arrest in the G2/M phase; also recorded: increased the number of cells in the S phase and G2/M phase | 20%–50% | larger base pair band than nicked DNA | 77.5% | 136% | 95.7% |  |
| COc1ccc2nc3ccccc3c(NCc3ccc(F)cc3)c2c1 [Compound 28, (4-Fluorobenzyl)-(2-methoxyacridin-9-yl)-amine] | increased the number of cells in the S phase and G2/M phase | less than 20% |  | 83.5% | 178% | 101% | 1 µM |
| Cc1ccc2nc3ccccc3c(NCc3ccccc3)c2c1 [Compound 30, Benzyl-(2-methylacridin-9-yl)-amine] | cell cycle arrest in the G2/M phase | less than 20% | larger base pair band than nicked DNA | 64.2% | 121% | 95.9% |  |
| Cc1ccc2nc3ccccc3c(NCc3ccc(Cl)cc3)c2c1 [Compound 31, (4-Chlorobenzyl)-(2-methyl-acridin-9-yl)-amine] | arrested the cell cycle in the S phase | 20%–50% | larger base pair band than nicked DNA | 48.6% | 179% | 109% |  |
